# Experiment: Inhibition of ROCK1 in human GTM3 cells by impedance assay
row,Structure (SMILES),EC50 [nM]
1,Cc1c(-c2ccnc(N)n2)sc2ccc(C(N)C(C)C)cc12 (racemic) [(+/-)-4-(5-(1-amino-2-methylpropyl)-3-methylbenzo[b]thiophen-2-yl)pyrimidin-2-amine],2100
2,Cc1c(-c2ccnc(N)n2)sc2ccc(C(N)CC(C)C)cc12 (racemic) [(+/-)-4-(5-(1-amino-3-methylbutyl)-3-methylbenzo[b]thiophen-2-yl)pyrimidin-2-amine],1400
3,CCCC(N)c1ccc2sc(-c3ccnc(N)n3)c(C)c2c1 (racemic) [(+/-)-4-(5-(1-aminobutyl)-3-methylbenzo[b]thiophen-2-yl)pyrimidin-2-amine],600
4,Cc1c(-c2ccnc(N)n2)sc2ccc(C(C)N)cc12 (racemic) [(+/-)-4-(5-(1-aminoethyl)-3-methylbenzo[b]thiophen-2-yl)pyrimidin-2-amine],4200
5,CCC(N)c1ccc2sc(-c3ccnc(N)n3)c(C)c2c1 (racemic) [(+/-)-4-(5-(1-aminopropyl)-3-methylbenzo[b]thiophen-2-yl)pyrimidin-2-amine],1700
6,COc1cccc(C(N)c2ccc3sc(-c4ccnc(N)n4)c(C)c3c2)c1 (racemic) [(+/-)-4-(5-(amino(3-methoxyphenyl)methyl)-3-methylbenzo[b]thiophen-2-yl)pyrimidin-2-amine],3600
7,Cc1c(-c2ccnc(N)n2)sc2ccc(C(N)c3ccccc3)cc12 (racemic) [(+/-)-4-(5-(amino(phenyl)methyl)-3-methylbenzo[b]thiophen-2-yl)pyrimidin-2-amine],1400
8,Cc1c(-c2ccnc(N)n2)sc2ccc(C(N)c3cccc(Cl)c3)cc12 (racemic) [(+/-)--4-(5-(amino(3-chlorophenyl)methyl)-3-methylbenzo[b]thiophen-2-yl)pyrimidin-2-amine],2700
9,COc1ccc(C(N)c2ccc3sc(-c4ccnc(N)n4)c(C)c3c2)cc1 (racemic) [(+/-)--4-(5-(amino(4-methoxyphenyl)methyl)-3-methylbenzo[b]thiophen-2-yl)pyrimidin-2-amine],2600
10,Cc1cccc(C(N)c2ccc3sc(-c4ccnc(N)n4)c(C)c3c2)c1 (racemic) [(+/-)--4-(5-(amino(m-tolyl)methyl)-3-methylbenzo[b]thiophen-2-yl)pyrimidin-2-amine],1900
11,Cc1c(-c2ccnc(N)n2)sc2ccc(Cc3cccc(C(=O)O)c3)cc12 [3-((2-(2-aminopyrimidin-4-yl)-3-methylbenzo[b]thiophen-5-yl)methyl)benzoic acid],> 10000
12,Cc1c(-c2ccnc(N)n2)sc2ccc(Cc3cccc(O)c3)cc12 [3-((2-(2-aminopyrimidin-4-yl)-3-methylbenzo[b]thiophen-5-yl)methyl)phenol],2900
13,Cc1c(-c2ccnc(N)n2)sc2ccc(Cc3cccc(C(F)(F)F)c3)cc12 [4-(3-methyl-5-(3-(trifluoromethyl)benzyl)benzo[b]thiophen-2-yl)pyrimidin-2-amine],> 10000
14,Cc1c(-c2ccnc(N)n2)sc2ccc(-c3ccccc3)cc12 [4-(3-methyl-5-phenylbenzo[b]thiophen-2-yl)pyrimidin-2-amine],> 10000
15,Cc1c(-c2ccnc(N)n2)sc2ccccc12 [4-(3-methylbenzo[b]thiophen-2-yl)pyrimidin-2-amine],> 10000
16,COc1ccccc1Cc1ccc2sc(-c3ccnc(N)n3)c(C)c2c1 [4-(5-(2-methoxybenzyl)-3-methylbenzo[b]thiophen-2-yl)pyrimidin-2-amine],> 10000
17,COc1cccc(Cc2ccc3sc(-c4ccnc(N)n4)c(C)c3c2)c1 [4-(5-(3-methoxybenzyl)-3-methylbenzo[b]thiophen-2-yl)pyrimidin-2-amine],> 10000
18,COc1ccc(Cc2ccc3sc(-c4ccnc(N)n4)c(C)c3c2)cc1 [4-(5-(4-methoxybenzyl)-3-methylbenzo[b]thiophen-2-yl)pyrimidin-2-amine],> 10000
19,Cc1c(-c2ccnc(N)n2)sc2ccc(CN)cc12 [4-(5-(aminomethyl)-3-methylbenzo[b]thiophen-2-yl)pyrimidin-2-amine],> 10000
20,Cc1c(-c2ccnc(N)n2)sc2ccc(Cc3ccccc3)cc12 [4-(5-benzyl-3-methylbenzo[b]thiophen-2-yl)pyrimidin-2-amine],> 10000
21,COC(=O)c1cccc(Cc2ccc3sc(-c4ccnc(N)n4)c(C)c3c2)c1 [methyl 3-((2-(2-aminopyrimidin-4-yl)-3-methylbenzo[b]thiophen-5-yl)methyl)benzoate],> 10000
